Measured values: patent publication US8722681B2, “N-sulfonyl thiazolylpiperazine derivatives and related N-sulfonyl heterocyclic derivatives for the treatment of neuro degenerative diseases” (NV reMYND, priority 2007, dated 2014)

System: M17-SYNwt cells
Test: α-synuclein cytotoxicity assay (LDH leakage from paraquat-treated M17-SYNwt cells)
Assay type: cell-based, human
Conditions: for EC50: M17-SYNwt cells, paraquat 32 mM, 40 hours, LDH activity; for % I (percentage inhibition) / % inh. (percentage inhibition): inhibition of synuclein toxicity at most effective concentration relative to untreated paraquat cells
Text: An α-synuclein expression plasmid was constructed by sub-cloning the NcoI/XhoI fragment from 212T-SYN(WT) (Griffioen et al., Biochem Biophys Acta (2006) 1762(3):312-318) containing the cDNA of human wild type α-synuclein correspondingly into a standard mammalian expression vector pcDNA3.1 resulting in plasmid pcDNA3.1-SYNwt. Plasmid pcDNA3.1 and pcDNA3.1-SYNwt were transfected to human neuroblastoma cells (ATCC No. CRL-2267) and independent clonal lines with the plasmids stably integrated into the genome were selected. […] Over-expression of α-synuclein in M17-SYNwt cell lines was confirmed by Western analysis.
Due to the high levels of α-synuclein M17-SYNwt cells are exquisitely sensitivity to paraquat, a well-known risk factor of synuclein-dependent neuronal degeneration. In degenerated or dead cells lactate dehydrogenase (LDH) is leaked out of the cells into the extracellular environment due to a loss of plasma-membrane integrity. This principle was used to determine cytotoxicity by quantifying the level of leaked LDH into the growth medium.
The detailed method for determining α-synuclein cytotoxicity was as follows: From appropriate precultures of M17 and M17-SYN cells were seeded at 50000 cells/cm^2 in Optimem Reduced Serum without phenol red (InVitrogen, Cat. 31985-047) supplemented with 5% fetal calf serum, 1 mM sodium pyruvate, 1×non-essential amino acids, 500 μg/ml G418 0.5×antibiotic/antimycotic. After 3 hours of incubation at 37° C./5% CO2 paraquat was added to the cells (final concentration of 32 mM), together with the test compound and the cells were further incubated for 40 hours. Subsequently, LDH activity was determined using Promega Cytotox 96 Non-Radioactive cytotoxicity assay, (Cat. G1780) according the supplier's instructions.
This α-synuclein expressing neuroblastoma cells made it possible to assess the ability of novel compounds to counteract α-synuclein cytotoxicity. […] Since this method monitors leaked LDH from degenerated or dead cells only non-toxic compounds will be identified as active inhibitors of α-synuclein-mediated cytotoxicity. Lack of toxicity is an important characteristic for compounds to be used as a medicament to patients in need. A compound was considered to be active in this test when it inhibits α-synuclein cytotoxicity by more than 25% relative to untreated M17-SYNwt cells at a concentration of 20 μg/mL or lower. In the experiments, the control group consisted of M17-SYNwt cells treated with DMSO, the untreated paraquat group consisted of M17-SYNwt cells treated with paraquat and DMSO, and the treated paraquat group consisted of M17-SYNwt cells treated with paraquat and the test compound dissolved in DMSO.
Percent inhibition was calculated as the synuclein toxicity inhibition by the compound in treated paraquat cells, relative to the synuclein cytotoxicity in untreated paraquat cells.
The compounds from table 1 were screened for activity using the α-synuclein cytotoxicity assay as described above. Dose responses were carried out on all compounds found to be active (10 point curves in duplicate).

| Structure (SMILES) | EC50 (Homo sapiens, Table 1) [nM] | % I (percentage inhibition) (Table 1) [%] | EC50 (Homo sapiens, Table 2) [nM] | % inh. (percentage inhibition) (Table 2) [%] | EC50 (Table 2) [nM] |
| --- | --- | --- | --- | --- | --- |
| COc1ccc(S(=O)(=O)N2CCN(c3nc(-c4ccc(F)cc4)cs3)CC2)cc1 [Compound 1, 1-[4-(4-fluorophenyl)-1,3-thiazol-2-yl]-4-[(4-methoxyphenyl)-sulfonyl]-piperazine] | 24 | 100 |  |  |  |
| Cc1ccc(S(=O)(=O)N2CCN(c3nc(-c4ccc(F)cc4)cs3)CC2)cc1 [Compound 2] | 160 | 70 |  |  |  |
| CCCc1sc(N2CCN(S(=O)(=O)c3ccc(C)cc3)CC2)nc1-c1ccccc1 [Compound 4] | 203 | 61 |  |  |  |
| COc1cccc(-c2csc(N3CCN(S(=O)(=O)c4ccc(F)cc4)CC3)n2)c1 [Compound 5] | 216 | 90 |  |  |  |
| O=S(=O)(c1ccc(Cl)cc1)N1CCN(c2nc(-c3ccc(F)cc3)cs2)CC1 [Compound 6] | 300 | 88 |  |  |  |
| O=S(=O)(c1ccc(Br)cc1)N1CCN(c2nc(-c3ccc(F)cc3)cs2)CC1 [Compound 7] | 327 | 94 |  |  |  |
| O=S(=O)(C1CCCCC1Br)N1CCN(c2nc(-c3ccc(F)cc3)cs2)CC1 (stereo not shown) [Compound 8] | 568 | 88 |  |  |  |
| O=S(=O)(c1ccc(F)cc1)N1CCN(c2nc(-c3ccc(F)cc3)cs2)CC1 [Compound 9] | 833 | 81 |  |  |  |
| COc1ccc(S(=O)(=O)N2CCN(c3nc(Cc4cccs4)cs3)CC2)cc1 [Compound 10, 1-(4-methoxyphenylsulfonyl)-4-(4-(thiophen-2-ylmethyl)thiazol-2-yl)piperazine] |  |  | 12 | 93 |  |
| COc1ccc(S(=O)(=O)N2CCN(c3nc(Cc4cccc(C#N)c4)cs3)CC2)cc1 [Compound 12, 3-((2-(4-(4-methoxyphenylsulfonyl)piperazin-1-yl)thiazol-4-yl)methyl)benzonitrile] |  |  | 3.2 | 66 |  |
| COc1ccc(S(=O)(=O)N2CCN(c3nc(Cc4cccc(F)c4)cs3)CC2)cc1 [Compound 13, 1-(4-(3-fluorobenzyl)thiazol-2-yl)-4-(4-methoxyphenylsulfonyl)piperazine] |  |  | 11.5 | 92 |  |
| COc1ccc(Cc2csc(N3CCN(S(=O)(=O)c4ccc(OC)cc4)CC3)n2)cc1 [Compound 14, 1-(4-(4-methoxybenzyl)thiazol-2-yl)-4-(4-methoxyphenylsulfonyl)piperazine] |  |  | 46.6 | 90 |  |
| COc1ccc(S(=O)(=O)N2CCN(c3nc(Cc4ccccc4OC)cs3)CC2)cc1 [Compound 15, 1-(4-(2-methoxybenzyl)thiazol-2-yl)-4-(4-methoxyphenylsulfonyl)piperazine] |  |  | 17 | 71 |  |
| COc1cccc(Cc2csc(N3CCN(S(=O)(=O)c4ccccc4OC)CC3)n2)c1 [Compound 16, 1-(4-(3-methoxybenzyl)thiazol-2-yl)-4-(2-methoxyphenylsulfonyl)piperazine] |  |  | 3590 | 76 |  |
| COc1cccc(Cc2csc(N3CCN(S(=O)(=O)c4cccc(OC)c4)CC3)n2)c1 [Compound 17, 1-(4-(3-methoxybenzyl)thiazol-2-yl)-4-(3-methoxyphenylsulfonyl)piperazine] |  |  | 4360 | 130 |  |
| COc1ccc(S(=O)(=O)N2CCN(c3nc(Cc4ccc5c(c4)OCO5)cs3)CC2)cc1 [Compound 18, 1-(4-(benzo[d][1,3]dioxol-5-ylmethyl)thiazol-2-yl)-4-(4-methoxyphenylsulfonyl)piperazine] |  |  | 22.8 | 19 |  |

| Structure (SMILES) | EC50 (Homo sapiens, Table 1) [nM] | % I (percentage inhibition) (Table 1) [%] | EC50 (Homo sapiens, Table 2) [nM] | % inh. (percentage inhibition) (Table 2) [%] | EC50 (Table 2) [nM] |
| --- | --- | --- | --- | --- | --- |
| COc1cccc(Cc2csc(N3CCN(S(=O)(=O)c4ccc5c(c4)OCO5)CC3)n2)c1 [Compound 19, 1-(4-(3-methoxybenzyl)thiazol-2-yl)-4-(benzo[d][1,3]dioxol-5-ylsulfonyl)piperazine] |  |  | 251 | 84 |  |
| COc1cccc(Cc2csc(N3CCN(S(=O)(=O)c4cccnc4)CC3)n2)c1 [Compound 20, 1-(4-(3-methoxybenzyl)thiazol-2-yl)-4-(pyridin-3-ylsulfonyl)piperazine] |  |  | 1720 | 76 |  |
| COc1cccc(Cc2csc(N3CCN(S(=O)(=O)c4ccccn4)CC3)n2)c1 [Compound 21, 1-(4-(3-methoxybenzyl)thiazol-2-yl)-4-(pyridin-2-ylsulfonyl)piperazine] |  |  | 2440 | 116 |  |
| COc1cccc(Cc2csc(N3CCN(S(=O)(=O)c4ccsc4)CC3)n2)c1 [Compound 22, 1-(4-(3-methoxybenzyl)thiazol-2-yl)-4-(thiophen-3-ylsulfonyl)piperazine] |  |  | 1000 | 89 |  |
| COc1cccc(Cc2csc(N3CCN(S(=O)(=O)c4c(C)n[nH]c4C)CC3)n2)c1 [Compound 23, 1-(4-(3-methoxybenzyl)thiazol-2-yl)-4-(3,5-dimethyl-1H-pyrazol-4-ylsulfonyl)piperazine] |  |  | 1290 | 95 |  |
| COc1cccc(Cc2csc(N3CCN(S(=O)(=O)c4cccc5c4ccn5C)CC3)n2)c1 [Compound 24, 4-(4-(4-(3-methoxybenzyl)thiazol-2-yl)piperazin-1-ylsulfonyl)-1-methyl-1H-indole] |  |  | 1170 | 82 |  |
| COc1cccc(Cc2csc(N3CCN(S(=O)(=O)c4cn(C)cn4)CC3)n2)c1 [Compound 26, 1-(4-(3-methoxybenzyl)thiazol-2-yl)-4-(1-methyl-1H-imidazol-4-ylsulfonyl)piperazine] |  |  | 870 | 87 |  |
| COc1cccc(Cc2csc(N3CCN(S(=O)(=O)c4ccc(NC(C)=O)cc4)CC3)n2)c1 [Compound 27, N-(4-(4-(4-(3-methoxybenzyl)thiazol-2-yl)piperazin-1-ylsulfonyl)phenyl)acetamide] |  |  | 250 | 91 |  |
| COc1cccc(Cc2csc(N3CCN(S(=O)(=O)c4ccc(C)cc4)CC3)n2)c1 [Compound 28, 1-(4-(3-methoxybenzyl)thiazol-2-yl)-4-tosylpiperazine] |  |  | 1890 | 165 |  |
| COc1cccc(Cc2csc(N3CCN(S(=O)(=O)c4ccc(C#N)cc4)CC3)n2)c1 [Compound 29, 4-(4-(4-(3-methoxybenzyl)thiazol-2-yl)piperazin-1-ylsulfonyl)benzonitrile] |  |  | 1270 | 42 |  |
| COc1cccc(Cc2csc(N3CCN(S(=O)(=O)c4ccc(F)cc4)CC3)n2)c1 [Compound 30, 1-(4-(3-methoxybenzyl)thiazol-2-yl)-4-(4-fluorophenylsulfonyl)piperazine] |  |  | 405 | 98 |  |
| COc1ccc(S(=O)(=O)N2CCC(c3nc(Cc4cccc(OC)c4)cs3)CC2)cc1 [Compound 31, 4-(4-(3-methoxybenzyl)thiazol-2-yl)-1-(4-methoxyphenylsulfonyl)piperidine] |  |  | 6.6 | 66 |  |
| COc1ccc(S(=O)(=O)N2CCN(Cc3nc(Cc4cccc(OC)c4)cs3)CC2)cc1 [Compound 32, 1-((4-(3-methoxybenzyl)thiazol-2-yl)methyl)-4-(4-methoxyphenylsulfonyl)piperazine] |  |  | 159 | 95 |  |
| COC(=O)COc1ccc(S(=O)(=O)N2CCN(c3nc(-c4ccc(C)cc4)cs3)CC2)cc1 [Compound 33, Methyl 2-(4-(4-(4-p-tolylthiazol-2-yl)piperazin-1-ylsulfonyl)phenoxy)acetate] |  |  | 51.6 | 21 |  |
| CC(=O)NCCc1ccc(S(=O)(=O)N2CCN(c3nc(-c4ccccc4)cs3)CC2)cc1 [Compound 34, N-(4-(4-(4-phenylthiazol-2-yl)piperazin-1-ylsulfonyl)phenethyl)acetamide] |  |  | 3090 | 46 |  |
| COc1cccc(-c2csc(N3CCN(S(=O)(=O)c4ccc(F)cc4)CC3)n2)c1 [Compound 35, 1-(4-fluorophenylsulfonyl)-4-(4-(3-methoxyphenyl)thiazol-2-yl)piperazine] |  |  |  | 90 | 216 |
